Test system: NOMO1
Experiment: cell viability relative to DMSO control; higher = less cytotoxic
Conditions: 48 h
In short: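 NOMO1, SEM and P12-Ichikawa leukemia cells spent at least four passages adapting to each medium before use. They were seeded at 500 cells/well (NOMO1, SEM) or 1000 cells/well (P12-Ichikawa) in 5 μl in 1536-well plates and pin-dosed with library compounds in DMSO at 11 threefold steps from 47 μM down to 0.79 nM. After 48 h at 37°C, CellTiter-Glo One luminescence was read. Viability is reported as a percentage of the DMSO wells on each plate, with cell-free wells as background.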

[1] = HPLM + 10% dialyzed FBS, 0.000781 µM
[2] = HPLM + 10% dialyzed FBS, 0.00234 µM
[3] = HPLM + 10% dialyzed FBS, 0.00702 µM
[4] = HPLM + 10% dialyzed FBS, 0.0211 µM
[5] = HPLM + 10% dialyzed FBS, 0.0632 µM
[6] = HPLM + 10% dialyzed FBS, 0.19 µM
[7] = HPLM + 10% dialyzed FBS, 0.569 µM
[8] = HPLM + 10% dialyzed FBS, 1.71 µM
[9] = HPLM + 10% dialyzed FBS, 5.12 µM
[10] = HPLM + 10% dialyzed FBS, 15.4 µM
[11] = HPLM + 10% dialyzed FBS, 46.1 µM
[12] = RPMI 5 mM glucose + 10% FBS, 0.000781 µM
[13] = RPMI 5 mM glucose + 10% FBS, 0.00234 µM
[14] = RPMI 5 mM glucose + 10% FBS, 0.00702 µM
[15] = RPMI 5 mM glucose + 10% FBS, 0.0211 µM
[16] = RPMI 5 mM glucose + 10% FBS, 0.0632 µM
[17] = RPMI 5 mM glucose + 10% FBS, 0.19 µM
[18] = RPMI 5 mM glucose + 10% FBS, 0.569 µM
[19] = RPMI 5 mM glucose + 10% FBS, 1.71 µM
[20] = RPMI 5 mM glucose + 10% FBS, 5.12 µM
[21] = RPMI 5 mM glucose + 10% FBS, 15.4 µM
[22] = RPMI 5 mM glucose + 10% FBS, 46.1 µM
[23] = RPMI 5 mM glucose + 10% dialyzed FBS, 0.000781 µM
[24] = RPMI 5 mM glucose + 10% dialyzed FBS, 0.00234 µM
[25] = RPMI 5 mM glucose + 10% dialyzed FBS, 0.00702 µM
[26] = RPMI 5 mM glucose + 10% dialyzed FBS, 0.0211 µM
[27] = RPMI 5 mM glucose + 10% dialyzed FBS, 0.0632 µM
[28] = RPMI 5 mM glucose + 10% dialyzed FBS, 0.19 µM
[29] = RPMI 5 mM glucose + 10% dialyzed FBS, 0.569 µM
[30] = RPMI 5 mM glucose + 10% dialyzed FBS, 1.71 µM
[31] = RPMI 5 mM glucose + 10% dialyzed FBS, 5.12 µM
[32] = RPMI 5 mM glucose + 10% dialyzed FBS, 15.4 µM
[33] = RPMI 5 mM glucose + 10% dialyzed FBS, 46.1 µM

Row | SMILES | cell viability [1] | cell viability [2] | cell viability [3] | cell viability [4] | cell viability [5] | cell viability [6] | cell viability [7] | cell viability [8] | cell viability [9] | cell viability [10] | cell viability [11] | cell viability [12] | cell viability [13] | cell viability [14] | cell viability [15] | cell viability [16] | cell viability [17] | cell viability [18] | cell viability [19] | cell viability [20] | cell viability [21] | cell viability [22] | cell viability [23] | cell viability [24] | cell viability [25] | cell viability [26] | cell viability [27] | cell viability [28] | cell viability [29] | cell viability [30] | cell viability [31] | cell viability [32] | cell viability [33]
1 | COC1=CC=CC(=C1/C2=N/CC3=C(N=C(NC4=CC(=C(C=C4)C(O)=O)OC)N=C3)C5=CC=C(Cl)C=C25)F | 78.5% | 88.3% | 78.9% | 88.2% | 76.3% | 38.6% | 53.4% | 48.3% | 58.6% | 62% | 51.6% | 70.8% | 80.6% | 77.2% | 84% | 71.4% | 28.4% | 48.8% | 46.5% | 49.8% | 53.6% | 61.8% | 82.2% | 77.5% | 72.9% | 82.2% | 63.7% | 51.9% | 49.4% | 48.2% | 49% | 50.5% | 61%
2 | CO[C@H]1C[C@H]2OC[C@@]2(OC(C)=O)[C@H]3[C@H](OC(=O)C4=CC=CC=C4)[C@]5(O)C[C@H](OC(=O)[C@H](O)[C@@H](NC(=O)OC(C)(C)C)C6=CC=CC=C6)/C(=C(/[C@@H](OC)C(=O)[C@]13C)C5(C)C)C | 75.9% | 46% | 28.5% | 25.8% | 19.6% | 19.9% | 19.3% | 18.8% | 27.7% | 19.9% | 7.15% | 68.2% | 79.6% | 86.1% | 14.6% | 10.7% | 13.3% | 11.9% | 12.6% | 14.9% | 11% | 4.22% | 64.3% | 81% | 82.7% | 19% | 14.9% | 13.8% | 13.7% | 13.7% | 17.5% | 16.8% | 7.39%
3 | O=C(O)CCCc1ccc(N(CCCl)CCCl)cc1 | 111% | 119% | 119% | 143% | 118% | 151% | 109% | 134% | 138% | 123% | 86.4% | 115% | 110% | 134% | 135% | 127% | 132% | 146% | 132% | 141% | 135% | 61.4% | 119% | 125% | 131% | 125% | 130% | 125% | 129% | 108% | 152% | 141% | 63.9%
4 | CCc1nc(C(N)=O)c(Nc2ccc(N3CCC(N4CCN(C)CC4)CC3)c(OC)c2)nc1NC1CCOCC1 |  |  |  |  |  |  |  |  |  |  |  | 99.1% | 103% | 109% | 124% | 104% | 112% | 103% | 93.7% | 64.2% | 55.8% | 43.1% | 124% | 112% | 101% | 123% | 147% | 99.9% | 77.9% | 78.7% | 57.5% | 38.1% | 33.3%
5 | O=C(c1ccc(C(=O)N2CCC(N3CCCC3)CC2)c(Nc2ccccc2)c1)N1CCC(N2CCCC2)CC1 | 98.6% | 110% | 104% | 103% | 105% | 111% | 112% | 104% | 102% | 113% | 112% | 85.6% | 98.2% | 90.3% | 95% | 106% | 91.7% | 82.3% | 94.3% | 99.7% | 92.6% | 107% | 101% | 110% | 111% | 98.6% | 98.2% | 104% | 101% | 109% | 96.7% | 96.3% | 97.3%
6 | COC1=C(CC=C(C)C)C2=C(\C=C/C(=O)O2)C=C1 | 101% | 107% | 125% | 110% | 119% | 114% | 117% | 120% | 102% | 113% | 81.8% | 114% | 117% | 120% | 116% | 104% | 123% | 104% | 108% | 108% | 114% | 97.9% | 116% | 116% | 117% | 105% | 108% | 116% | 120% | 113% | 98.7% | 104% | 85.2%
7 | CNC(=O)c1ccccc1Sc1ccc2c(/C=C/c3ccccn3)n[nH]c2c1 |  |  |  |  |  |  |  |  |  |  |  | 108% | 116% | 107% | 115% | 118% | 105% | 112% | 91.5% | 74.8% | 68.8% | 84.2% | 103% | 119% | 123% | 109% | 104% | 100% | 107% | 74.9% | 74.8% | 68.8% | 67.9%
8 | O=C(/C=C/c1cccnc1)NCCCCC1CCN(C(=O)c2ccccc2)CC1 | 102% | 59.8% | 33.1% | 17.4% | 13.1% | 7.89% | 6.3% | 7.27% | 9.47% | 10.6% | 6.73% | 105% | 110% | 47% | 28% | 12.9% | 9.19% | 8.33% | 8.21% | 8.16% | 8.07% | 7.6% | 110% | 75.6% | 39% | 30.7% | 16.8% | 9.73% | 7.83% | 8.77% | 7.77% | 8.34% | 6.8%
9 | O=C(O)c1nn(Cc2ccc(Cl)cc2Cl)c2ccccc12 | 112% | 116% | 106% | 100% | 78.3% | 83.8% | 71.2% | 61.8% | 92.3% | 76.5% | 69.9% | 86.1% | 76.6% | 78.1% | 83.8% | 96.7% | 81.7% | 75.5% | 83.8% | 85.4% | 79.5% | 74% | 79.9% | 89.7% | 97.4% | 94.2% | 91.1% | 85.6% | 73.8% | 75.3% | 83.2% | 81.2% | 76.1%
10 | CCNC(=O)c1noc(-c2cc(C(C)C)c(O)cc2O)c1-c1ccc(CN2CCOCC2)cc1 | 91.6% | 98.5% | 109% | 121% | 76.2% | 19.2% | 24.1% | 20% | 20.9% | 19.3% | 21.2% | 119% | 108% | 123% | 116% | 92.6% | 13.5% | 13.7% | 15.4% | 16% | 16% | 19.3% | 107% | 128% | 114% | 131% | 96.4% | 18.9% | 17.3% | 20.3% | 17.4% | 19.5% | 22.4%
11 | COc1cc([C@@H]2c3cc4c(cc3[C@H](O)[C@H]3COC(=O)[C@H]23)OCO4)cc(OC)c1OC | 82.2% | 54.7% | 43.6% | 37.9% | 24.6% | 30.1% | 33.9% | 38.5% | 29.4% | 30.6% | 5.9% | 76.2% | 92.9% | 17.5% | 21.1% | 12.1% | 19.2% | 17.5% | 18.5% | 16.4% | 18.5% | 5.06% | 78.5% | 89.8% | 26.2% | 23.7% | 16.9% | 24.8% | 20.2% | 18.2% | 17.9% | 18.9% | 6.11%
12 | CCCCCCCN(CC)CCCC(O)c1ccc(NS(C)(=O)=O)cc1.CCCCCCCN(CC)CCCC(O)c1ccc(NS(C)(=O)=O)cc1.O=C(O)/C=C/C(=O)O (stereo not given) | 117% | 112% | 126% | 126% | 114% | 126% | 127% | 108% | 122% | 112% | 102% | 94.3% | 108% | 105% | 99.8% | 107% | 106% | 97.1% | 107% | 101% | 107% | 110% | 110% | 114% | 107% | 100% | 99.9% | 124% | 103% | 109% | 114% | 112% | 90.3%
13 | O=C1N\N=C(\C[C@@H]2CCN(C2)C(=O)C3CC3)N1C4=CC=C(C=C4)C5=CC=C6OC=CC6=C5 | 99.4% | 89% | 90.1% | 94.5% | 94.7% | 99% | 92% | 109% | 94.4% | 73.9% | 92.2% | 78.2% | 77.4% | 87.3% | 77.6% | 90% | 79.9% | 95.3% | 82.3% | 85.6% | 81.3% | 80.5% | 85.5% | 86.8% | 75.5% | 82.5% | 80.5% | 81.6% | 85.4% | 82.3% | 86% | 75.5% | 87.7%
14 | COc1cc2nc(N3CCN(C(=O)c4ccco4)CC3)nc(N)c2cc1OC | 77.8% | 103% | 93.7% | 97% | 98.3% | 105% | 105% | 92.8% | 91.8% | 43% | 5.27% | 72.1% | 78.4% | 81.6% | 83.9% | 87.5% | 91.9% | 82.2% | 85.1% | 90.7% | 95.9% | 4.8% | 72% | 83.6% | 82.1% | 80.5% | 90% | 92.2% | 95.2% | 98.2% | 80.4% | 88.4% | 4.29%
